Experimental data published in patent US8466089B2, “Pyrazole compounds, process for their production and herbicides containing them” (Ishihara Sangyo Kaisha, Ltd., priority 2008, dated 2013).

Key:
Assay type in all cases: in vivo
[1] = test system: barnyardgrass (Echinochloa crus-galli L.); assay: Test Example 1, foliar treatment in upland pots; details: 20th to 22nd day after application, visual, read-out: Growth inhibition rate (%) Barnyardgrass
Text: (§1) Upland field soil was put into a 1/170,000 hectare pot, and seeds of various plants were sown. When the respective plants reached predetermined leaf stage ((1) barnyardgrass (Echinochloa crus-galli L.): 1.2 to 3.0 leaf stage, (2) crabgrass (Digitaria sanguinalis L.): 1.0 to 3.0 leaf stage, (3) green foxtail (Setaria viridis L.): 1.5 to 3.0 leaf stage, (4) redroot pigweed (Amaranthus retroflexus L.): cotyledon stage to 1.5 leaf stage, (5) prickly sida (Sida spinosa L.): cotyledon stage to 2.0 leaf stage, (6) velvetleaf (Abutilon theophrasti MEDIC.): cotyledon stage to 1.3 leaf stage, (7) rice (Oryza sativa L.): 1.2 to 2.5 leaf stage, (8) corn (Zea mays L.): 2.0 to 3.3 leaf stage, (9) soybean (Glycine max Merr.): primary leaf stage to 0.3 leaf stage) and wheat (Triticum spp.): 2.0 to 3.0 leaf stage, wettable powders or emulsifiable concentrates of the compounds of the present invention prepared in accordance with a conventional preparation method, were weighed so that the active ingredients became the prescribed amounts, and diluted with water in an amount corresponding to 500 liter per 1 hectare (containing 0.1 vol % of an agricultural spreader (“KUSARINOH”, manufactured by NIHON NOHYAKU CO., LTD.)). The spray solutions thus prepared were applied for foliar treatment by a small sprayer.
(§2) On the 20th to 22nd day after application, the state of growth of the respective plants was visually observed, and the herbicidal effect was evaluated by a growth inhibition rate (%) of 0 (equivalent to the non-treated area) to 100% (complete kill).

corn (Zea mays L.) [2] = assay: Test Example 1, foliar treatment in upland pots; details: 20th to 22nd day after application, visual, read-out: Growth inhibition rate (%) Corn
Text: as §1, §2

[3] = test system: crabgrass (Digitaria sanguinalis L.); assay: Test Example 1, foliar treatment in upland pots; details: 20th to 22nd day after application, visual, read-out: Growth inhibition rate (%) Crabgrass
Text: as §1, §2

[4] = test system: green foxtail (Setaria viridis L.); assay: Test Example 1, foliar treatment in upland pots; details: 20th to 22nd day after application, visual, read-out: Growth inhibition rate (%) Green foxtail
Text: as §1, §2

[5] = test system: redroot pigweed (Amaranthus retroflexus L.); assay: Test Example 1, foliar treatment in upland pots; details: 20th to 22nd day after application, visual, read-out: Growth inhibition rate (%) Redroot pigweed
Text: as §1, §2

rice (Oryza sativa L.) [6] = assay: Test Example 1, foliar treatment in upland pots; details: 20th to 22nd day after application, visual, read-out: Growth inhibition rate (%) Rice
Text: as §1, §2

[7] = test system: velvetleaf (Abutilon theophrasti MEDIC.); assay: Test Example 1, foliar treatment in upland pots; details: 20th to 22nd day after application, visual, read-out: Growth inhibition rate (%) Velvetleaf
Text: as §1, §2

corn (Zea mays L.) [8] = assay: Test Example 2, soil application on the day after sowing; details: 21st to 22nd day after application, visual, read-out: Growth inhibition rate (%) Corn
Text: (§3) Upland field soil was put into a 1/170,000 hectare pot, and seeds of various plants (barnyardgrass (Echinochloa crus-galli L.), crabgrass (Digitaria sanquinalis L.), green foxtail (Setaria viridis L.), redroot pigweed (Amaranthus retroflexus L.), prickly sida (Sida spinosa L.), velvetleaf (Abutilon theophrasti MEDIC.), rice (Oryza sativa L.), corn (Zea mays L.), soybean (Glycine max Merr.)) and wheat (Triticum spp.) were sown. On the day after sowing, wettable powders or emulsifiable concentrates of the compounds of the present invention prepared in accordance with a conventional preparation method, were weighed so that the active ingredients became the prescribed amounts, and diluted with water in an amount corresponding to 500 liter per 1 hectare, followed by soil application with a small sprayer.
(§4) On the 21st to 22nd day after the application, the state of growth of the respective plants was visually observed, and the herbicidal effect was evaluated by a growth inhibition rate (%) of from 0 (equivalent to the non-treated area) to 100% (complete kill).

rice (Oryza sativa L.) [9] = assay: as above; details: 21st to 22nd day after application, visual, read-out: Growth inhibition rate (%) Rice
Text: as §3, §4

wheat (Triticum spp.) = assay: as above; details: 21st to 22nd day after application, visual, read-out: Growth inhibition rate (%) Wheat
Text: as §3, §4

[10] = test system: Japanese bulrush (Scirpus juncoides); assay: Test Example 3, paddy field pot, application to irrigated water; details: Schoenoplectiella juncoides, applied at 0.5 leaf stage, 13th to 17th day after application, read-out: Growth inhibition rate (%) Japanese bulrush
Text: (§5) Paddy field soil was put into a 1/1,000,000 hectare pot, and seeds of barnyardgrass (Echinochloa oryzicola vasing.) and Japanese bulrush (Scirpus juncoides) were sown and lightly covered with soil. Then, pot was left to stand in a greenhouse in a state irrigated to a water depth of from 0.5 to 1 cm, and next day or two days later, tubers of Japanese ribbon waparo (Sagittaria pygmaea) were planted. Then, the irrigated water depth was maintained to be from 3 to 4 cm, and when barnyardgrass and Japanese bulrush reached 0.5 leaf stage, and Japanese ribbon waparo reached primary leaf stage, a water diluted solution of a wettable powder or an emulsifiable concentrate of the compound of the present invention prepared in accordance with a conventional preparation method, was uniformly dropwise applied by a pipette so that the amount of active ingredients would be a prescribed amount. Further, paddy field soil was put into a 1/1,000,000 pot, followed by soil puddling to an irrigated water depth of from 3 to 4 cm. Next day, rice (Oryza sativa L.) (var.: Nihonbare) of two leaf stage was transplanted in a transplantation depth of 3 cm. On the 4th day after transplantation, the compound of the present invention was applied in the same manner as described above.
(§6) On the 13th to 17th day after application, the state of growth of barnyardgrass, Japanese bulrush and Japanese ribbon waparo was visually observed, and on the 20th to 23rd day after application, the state of growth of rice was visually observed, and the herbicidal effect was evaluated by a growth inhibition rate (%) of 0 (equivalent to the non-treated area) to 100% (complete kill).

[11] = test system: Japanese ribbon waparo (Sagittaria pygmaea); assay: as above; details: applied at primary leaf stage, 13th to 17th day after application, read-out: Growth inhibition rate (%) Japanese ribbon waparo
Text: as §5, §6

[12] = test system: barnyardgrass (Echinochloa oryzicola vasing.); assay: as above; details: applied at 0.5 leaf stage, 13th to 17th day after application, read-out: Growth inhibition rate (%) barnyard grass
Text: as §5, §6

[13] = test system: rice (Oryza sativa L.) (var.: Nihonbare); assay: Test Example 3, paddy field pot, transplanted rice; details: applied 4th day after transplantation, 20th to 23rd day after application, read-out: Growth inhibition rate (%) Rice
Text: as §5, §6

SMILES	inhibition at 7 g/ha [1] [%]	inhibition at 7 g/ha (corn (Zea mays L.) [2]) [%]	inhibition at 7 g/ha [3] [%]	inhibition at 7 g/ha [4] [%]	inhibition at 7 g/ha [5] [%]	inhibition at 7 g/ha (rice (Oryza sativa L.) [6]) [%]	inhibition at 7 g/ha [7] [%]	inhibition at 250 g/ha (corn (Zea mays L.) [8]) [%]	inhibition at 250 g/ha (rice (Oryza sativa L.) [9]) [%]	inhibition at 250 g/ha (wheat (Triticum spp.)) [%]	inhibition at 63 g/ha [10] [%]	inhibition at 63 g/ha [11] [%]	inhibition at 63 g/ha [12] [%]	inhibition at 63 g/ha [13] [%]
COCCOc1c(S(C)(=O)=O)ccc(C(=O)c2c(C)nn(C)c2O)c1C [Compound No. 5-2, (5-Hydroxy-1,3-dimethyl-1H-pyrazol-4-yl)(3-(2-methoxyethoxy)-2-methyl-4-(methylsulfonyl)phenyl)ketone]	90	0	90	100	90	50	70	0	10	0	70	80	80	20
CCn1ncc(C(=O)c2ccc(S(C)(=O)=O)c(OCCOC)c2C)c1OC(C)OC(=O)OC (stereo not shown) [Compound No. 2-1, 1-(1-Ethyl-4-(3-(2-methoxyethoxy)-2-methyl-4-(methylsulfonyl)benzoyl)-1H-pyrazol-5-yloxy)ethyl methyl carbonate]	95	0	100	100	90	70	100	0	98	0	80	80	100	20
CCOC(=O)OC(C)Oc1c(C(=O)c2ccc(S(C)(=O)=O)c(OCCOC(C)C)c2C)cnn1C (stereo not shown) [Compound No. 1-5, Ethyl 1-(4-(3-(2-isopropoxyethoxy)-2-methyl-4-(methylsulfonyl)benzoyl)-1-methyl-1H-pyrazol-5-yloxy)ethyl carbonate]	95	10	90	80	80	20	80	10	80	0	20	90	100	30
COCCOc1c(S(C)(=O)=O)ccc(C(=O)c2cnn(C(C)C)c2OC(C)OC(=O)OC)c1C (stereo not shown) [Compound No. 4-1, 1-(1-Isopropyl-4-(3-(2-methoxyethoxy)-2-methyl-4-(methylsulfonyl)benzoyl)-1H-pyrazol-5-yloxy)ethyl methyl carbonate]	90	0	90	95	85	80	100	0	98	10	98	70	100	40
CCn1nc(C)c(C(=O)c2ccc(S(C)(=O)=O)c(OCCOC)c2C)c1O [Compound No. 6-1, (1-Ethyl-5-hydroxy-3-methyl-1H-pyrazol-4-yl)(3-(2-methoxyethoxy)-2-methyl-4-(methylsulfonyl)phenyl)ketone]	10	0	50	60	60	20	50	0	100	20	80	60	60	40
CCc1nn(C)c(O)c1C(=O)c1ccc(S(C)(=O)=O)c(OCCOC)c1C [Compound No. 5-3, (5-Hydroxy-1-methyl-3-ethyl-1H-pyrazol-4-yl)(3-(2-methoxyethoxy)-2-methyl-4-(methylsulfonyl)phenyl)ketone]	90	0	90	90	95	50	80	20	20	0	50	50	60	20
COC(=O)OC(C)Oc1c(C(=O)c2ccc(S(C)(=O)=O)c(C(=O)OC)c2C)cnn1C (stereo not shown) [Compound No. 1-2, Methyl 3-(5-(1-(methoxycarbonyloxy)ethoxy)-1-methyl-1H-pyrazole-4-carbonyl)-2-methyl-6-(methylsulfonyl)benzoate]	100	0	90	100	95	70	80	0	100	20	70	95	100	40
CCCn1ncc(C(=O)c2ccc(S(C)(=O)=O)c(OCCOC)c2C)c1O [Compound No. 7-1, (5-Hydroxy-1-n-propyl-1H-pyrazol-4-yl)(3-(2-methoxyethoxy)-2-methyl-4-(methylsulfonyl)phenyl)ketone]	60	0	70	70	70	10	75	0	98	40	70	90	30	20
